Assay results published in patent US7507727B2, “Substituted quinobenzoxazine analogs and methods of using thereof” (Cylene Pharmaceuticals, Inc., priority 2003, dated 2009).
In brackets after ≈: the same amount, converted by molar mass. Where two headings read alike, the source gives them in different places.

Key:
Formulated solubility = type: physicochemical
[1] = test system: c-myc quadruplex relative to pUC 18 plasmid DNA; test: Quadruplex/duplex competitor assay (selectivity screen); type: binding; conditions: ratio of the competitor IC50 values; FIG. 3
Protocol: After cooling down to room temperature, 1 mM KCl and the test compound (various concentrations) were added and the mixture incubated for 15 minutes at room temperature. The primer extension was performed by adding 10 mM KCl and Taq DNA Polymerase (2.5 U/reaction, Promega) and incubating at 70° C. for […]. The reaction was stopped by adding 1 μl of the reaction mixture to 10 μl Hi-Di Formamide mixed and 0.25 μl LIZ120 size standard. Hi-Di Formamide and LIZ120 size standard were purchased from Applied Biosystems. The method is repeated with the addition of various concentrations of competitor nucleic acids at the first step, along with the primer and template sequences. The G-quadruplex binding ligand is added at the concentration previously established to produce a 1:1 ratio of stop-product to full-length product.
Quadruplex/Duplex Competitor Assay. The selectivity of compounds for the target quadruplex sequence relative to duplex DNA may be measured using a competition assay (i.e., “selectivity screen”). […] The degree to which each competitor successfully “soaks up” drug in solution is reflected by the quantitative decrease in synthesis of the stop product. In this manner, the relative binding affinities of drug to both the target quadruplex and duplex DNA are determined. […]

[2] = biological target: c-Myc template DNA (c-myc quadruplex); test: Quadruplex binding / stop assay (Taq polymerase arrest, capillary electrophoresis); conditions: read-out: IC50 value in the stop assay; arrest product/full-length product ratio 1:1; FIG. 2
From the text: A high throughput polymerase arrest assay has been developed. The assay comprises contacting a template nucleic acid, often DNA, with a primer, which also is often DNA; contacting the primer/template complex with a compound described herein (also referred to as a “test compound”); contacting the primer/template complex with a polymerase; and separating reaction products. The assay often includes the step of denaturing the primer/template complex mixture and then renaturing the complex, which often is carried out before a test molecule is added to the system. Multiple assays often are carried out using varying concentrations of a test compound, such that an IC50 value can be obtained, for example. The reaction products often include extended primers of different lengths.
Thus, the reaction mixture often includes at least two reaction products when a test compound interacts with a quadruplex structure in the template, one having a completely extended primer and one having an incompletely extended primer, and these two reaction products are separated. The products may be separated using any convenient separation method, such as mass spectrometry and in one embodiment, capillary electrophoresis.
In an embodiment, a primer oligonucleotide covalently linked to a fluorescent label is contacted with template DNA. The resulting complex is contacted with a test molecule and then contacted with a polymerase capable of extending the primer. The reaction products then are separated and detected by capillary electrophoresis. A longer primer sequence was used for practicing this embodiment as compared to embodiments where the primer includes no covalently-linked fluorophore or where capillary electrophoresis is not utilized for separation. Deoxynucleotides are added at any stage of the assay before the separation, often when the primer is contacted with the template DNA. The template DNA/primer complex often is denatured (e.g., by increasing the temperature of the system) and then renatured (e.g., by cooling the system) before a test compound is added).
The mixture was denatured at 95° C. for 5 minutes and, after cooling down to room temperature, was incubated at 37° C. for 15 minutes.
After cooling down to room temperature, 1 mM KCl and the test compound (various concentrations) were added and the mixture incubated for 15 minutes at room temperature. The primer extension was performed by adding 10 mM KCl and Taq DNA Polymerase (2.5 U/reaction, Promega) and incubating at 70° C. for 30 minutes. The reaction was stopped by adding 1 μl of the reaction mixture to 10 μl Hi-Di Formamide mixed and 0.25 μl LIZ120 size standard. Hi-Di Formamide and LIZ120 size standard were purchased from Applied Biosystems.
The partially extended quadruplex arrest product was between 61 or 62 bases long and the full-length extended product was 99 bases long. The products were separated and analyzed using capillary electrophoresis. Capillary electrophoresis was performed using an ABI PRISM 3100-Avant Genetic Analyzer.
Stop Assays. […] A fluorescently labeled primer DNA is then annealed to the 3′ end of the template DNA. A DNA polymerase such as Taq polymerase is then introduced to synthesize a complementary strand of DNA by extending from the fluorescently labeled primer. When the progress of the Taq polymerase is unhindered, it synthesizes a full-length copy of the template.
These products are visualized by capillary electrophoresis.

[3] = test system: Chinese Hamster Ovary Cells (CHO); test: In vitro chromosome aberration assay (incl. mitotic index); type: cell-based; conditions: for % MI 3 HRS + S9 / % MI 20 HRS / % MI: average mitotic index; for % MI: first column (time not given)
[4] = Pharmacokinetic/toxicokinetic evaluation in rats; type: in vivo; conditions: for Cmax / AUC(0-t) / half-life / AUC(0-inf): rat, plasma
Protocol: The study was conducted using three (3) test and one (1) control article groups. The high and low test article groups and the control group consisted of 28 animals each and were used to assess tolerance. The medium test article group consisted of 64 animals of which 28 animals were used to assess tolerance and 36 animals were used to determine the level of test article in the blood at various time points after the first and fifth doses in the PK/TK portion of the study. The control article was the solution (5% dextrose in water; D5W) used to dilute the test article prior to administration and was administered at the same volume as the high dose test article group. […] Test and control articles were administered by intravenous (IV) injection into a tail vein over one minute on five consecutive days.
Blood samples for test article blood level analysis were taken as follows. Approximately 0.3-0.5 mL of blood was taken from three male and three female rats under anesthesia at each sample time point of pre-dose and at the end of injection (Time 0) and at approximately 0.08, 0.25, 0.5, 1, 2, 4, 8, 12, and 24 hours from the end of the injection after the first and fifth doses. Animals used to assess tolerance were terminated one day (for the primary group) or 15 days (for the recovery group) after the last dose. At termination of the tolerance test animals, blood for hematology and clinical chemistry analysis was drawn prior to euthanasia and following euthanasia. A necropsy was performed to include collection of major organs for microscopic evaluation. The animals used for the pk/tk blood sampling only to determine the level of test article were euthanized after the final blood sample was collected without any further sampling or observations.
PK/TK: Blood samples for test article blood level analysis were taken. Utilizing 18 male and 18 female medium dose animals, approximately 0.3-0.5 mL of blood was taken from three male and three female rats under anesthesia at each sampling time point of pre-dose and at the end of injection (Time 0) and at approximately 0.08, 0.25, 0.5, 1, 2, 4, 8, 12, and 24 hours from the end of the injection after the first and fifth dose. Blood sampling was via retro-orbital bleeding or cardiac puncture bleeding for an animal's terminal sample. Plasma (lithium heparin anticoagulant) samples were prepared and analyzed. General procedures for chemical pathology, necropsy, and histopathology, and statistical methods, for example as described in Example 65, were followed.

## CN1CCCC1CCNC(=O)c1cn2c3c(c(N4CCC(c5cnccn5)C4)c(F)cc3c1=O)Oc1cc3ccccc3cc1-2 (stereo not drawn) [CX-3543]
Formulated solubility
  solubility: ~20 mg/mL (≈ 33.1 mM)
[1]
  selectivity for the c-myc quadruplex relative to pUC 18 plasmid DNA: approximately 400 ×
[2]
  IC50: 1000 nM
[3]; CHO, 0.0016 mg/mL
  % CA 3 HRS: 6.0%
  FI 3 HRS: 2.0
  % CA 3 HRS + S9: 4.5%
  FI 3 HRS + S9: 1.5
  % CA 20 HRS: 4.5%
  FI 20 HRS: 1.5
[3]; CHO, 0.005 mg/mL
  % CA 3 HRS: 5.5%
  FI 3 HRS: 1.8
  % CA 3 HRS + S9: 8.4%
  FI 3 HRS + S9: 2.8
  % CA 20 HRS: 5.0%
  FI 20 HRS: 1.7
[3]; CHO, 0.016 mg/mL
  % CA 3 HRS + S9: 9.0%
  FI 3 HRS + S9: 2.0
[3]; CHO, 3 h, 3 h + S9, 20 h
  mutagenicity (chromosome aberrations): not mutagenic
[3]; 0.0016 mg/mL
  % MI 3 HRS + S9: 12%
  % MI 20 HRS: 8%
  % MI: 6%
[3]; 0.005 mg/mL
  % MI 3 HRS + S9: 9%
  % MI 20 HRS: 4%
  % MI: 8%
[3]; 0.016 mg/mL
  % MI 3 HRS + S9: 1%
  % MI 20 HRS: 0%
  % MI: 1%
[3]; 0.05 mg/mL
  % MI 3 HRS + S9: 0%
  % MI 20 HRS: 0%
  % MI: 0%
[3]; 0.16 mg/mL
  % MI 3 HRS + S9: 0%
  % MI 20 HRS: 1%
  % MI: 0%
[3]; 0.5 mg/mL
  % MI 3 HRS + S9: 0%
  % MI 20 HRS: 0%
  % MI: 0%
[4]; female
  Dose 5 to Dose 1 ratio for AUC(0-24): 1.5
[4]; female, iv, 7.6 mg/kg, Dose 1
  Cmax: 598 ng/mL
[4]; female, iv, 7.6 mg/kg, Dose 5
  Cmax: 1050 ng/mL
[4]; female, iv, 7.6 mg/kg, female, Dose 1, read-out: AUC(0-24)
  AUC(0-t): 784 ng·h/mL
[4]; female, iv, 7.6 mg/kg, female, Dose 5, read-out: AUC(0-24)
  AUC(0-t): 1200 ng·h/mL
[4]; female, iv, 7.6 mg/kg, female, Dose 5, read-out: terminal half-life (converted)
  half-life: 4.8 h
[4]; female, iv, 7.6 mg/kg, female, IV, Dose 1 (medium dose group, 7.6 mg/kg), read-out: terminal half-life (converted)
  half-life: 6.6 h
[4]; female, iv, […], female, Dose 1, […] IV, read-out: T1/2 (converted)
  half-life: 6.6 h
[4]; female, iv, […], female, Dose 5, […] IV once daily, read-out: T1/2 (converted)
  half-life: 4.8 h
[4]; male
  Dose 5 to Dose 1 ratio for AUC(0-24): 1.3
[4]; male, Dose 5 to Dose 1 AUC(0-24), 7.1 mg/kg IV
  Accumulation Ratio: 1.3
[4]; male, iv, 7.1 mg/kg, Dose 1, 7.1 mg/kg IV
  Cmax: 514 ng/mL
[4]; male, iv, 7.1 mg/kg, Dose 5, 7.1 mg/kg IV once daily
  Cmax: 485 ng/mL
[4]; male, iv, 7.1 mg/kg, male, Dose 1, 7.1 mg/kg IV, read-out: AUC(0-24)
  AUC(0-t): 779 ng·h/mL
[4]; male, iv, 7.1 mg/kg, male, Dose 1, 7.1 mg/kg IV, read-out: T1/2 (converted)
  half-life: 6.8 h
[4]; male, iv, 7.1 mg/kg, male, Dose 5, 7.1 mg/kg IV once daily, read-out: AUC(0-24)
  AUC(0-t): 1010 ng·h/mL
[4]; male, iv, 7.1 mg/kg, male, Dose 5, 7.1 mg/kg IV once daily, read-out: T1/2 (converted)
  half-life: 8.8 h
[4]; male, iv, 7.6 mg/kg, Dose 1
  Cmax: 514 ng/mL
[4]; male, iv, 7.6 mg/kg, Dose 5
  Cmax: 485 ng/mL
[4]; male, iv, 7.6 mg/kg, male, Dose 1, read-out: AUC(0-24)
  AUC(0-t): 779 ng·h/mL
[4]; male, iv, 7.6 mg/kg, male, Dose 5, read-out: AUC(0-24)
  AUC(0-t): 1010 ng·h/mL
[4]; male, iv, 7.6 mg/kg, male, Dose 5, read-out: terminal half-life (converted)
  half-life: 8.8 h
[4]; male, iv, 7.6 mg/kg, male, IV, Dose 1 (medium dose group, 7.6 mg/kg), read-out: terminal half-life (converted)
  half-life: 6.8 h
[4]; female, Dose 1, 7.2 mg/kg IV
  AUC(0-inf): 861 ng·h/mL
[4]; iv, 7.6 mg/kg, female, Dose 1
  AUC(0-inf): 861 ng·h/mL
[4]; iv, 7.6 mg/kg, male, Dose 1
  AUC(0-inf): 833 ng·h/mL
[4]; male, Dose 1, 7.1 mg/kg IV
  AUC(0-inf): 833 ng·h/mL
